Our source for the IC50 values is patent publication US12673933B2, “Aminopyrazine compounds as HPK1 inhibitor and the use thereof” (BEIGENE, LTD., priority 2019, dated 2026).

pIC50: −log10 of the molar value.

This assay deals with T1, HPK1 kinase (aa1-346, Life Technologies) (Homo sapiens, UniProt Q92918).
T1 construct: HPK1 kinase (aa1-346, Life Technologies); purchased Life Technologies
T1 sequence (Q92918 1-346): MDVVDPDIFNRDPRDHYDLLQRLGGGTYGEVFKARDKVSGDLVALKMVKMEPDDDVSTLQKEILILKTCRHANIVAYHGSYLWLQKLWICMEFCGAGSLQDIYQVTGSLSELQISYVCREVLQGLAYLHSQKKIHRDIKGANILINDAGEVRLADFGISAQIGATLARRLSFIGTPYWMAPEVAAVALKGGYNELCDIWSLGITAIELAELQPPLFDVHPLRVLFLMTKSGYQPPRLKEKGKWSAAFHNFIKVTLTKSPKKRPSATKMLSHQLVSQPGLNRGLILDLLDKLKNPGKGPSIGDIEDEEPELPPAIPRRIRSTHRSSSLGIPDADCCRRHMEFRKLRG
The assay is described as follows: HPK Kinase Activity Assay at 1 mM ATP (TR-FRET). It counts as biochemical. To be noted: HPK1 kinase 40 nM, 0.5 μM STK1 substrate, read-out: Enzymatic activity IC50. On the procedure: HPK Kinase Activity Assay at 1 mM ATP
Compounds disclosed herein were tested for inhibition of HPK1 kinase (aa1-346, Life Technologies) activity in assays based on the time-resolved fluorescence-resonance energy transfer (TR-FRET) methodology. The assays were carried out in 384-well low volume black plates in a reaction mixture containing HPK1 kinase (40 nM), 1 mM ATP, 0.5 μM STK1 substrate and 0-10 μM compound in buffer containing 50 mM HEPES, 0.01% BSA, 0.1 mM Orthovanadate, 10 mM MgCl2, 1 mM DTT, pH=7.0, 0.005% Tween-20. The kinase was incubated with the compounds disclosed herein or DMSO for 60 minutes at room temperature and the reaction was initiated by the addition of ATP and STK1 substrate. After reaction at room temperature for 120 minutes, an equal volume of stop/detection solution was added according to the manufacture's instruction (CisBio). The stop/detection solution contained STK Antibody-Cryptate and XL665-conjugated streptavidin in Detection Buffer. The TR-FRET signals (ratio of fluorescence emission at 665 nm over emission at 620 nm with excitation at 337 nm wavelength) were recorded on a PHERAstar FS plate reader (BMG Labtech). Phosphorylation of STK1 substrate led to the binding of STK Antibody-Cryptate to the biotinylated STK1 substrate, which places fluorescent donor (Eu^3+ crypate) in close proximity to the accepter (Streptavidin-XL665), thus resulting in a high degree of fluorescence resonance energy transfer. The inhibition of HPK1 in presence of increasing concentrations of compounds was calculated based on the ratio of fluorescence at 665 nm to that at 620 nm. The IC50 for each compound was derived from fitting the data to the four-parameter logistic equation by Graphpad Prism software.
(Time-resolved FRET reads energy transfer from a long-lived donor to a nearby acceptor.)
For orientation: pIC50 means the IC50 on a negative log10 scale, so that one unit is a factor of ten. As to `Cc1cc(-c2cnc(N)c(O[C@H](C)c3c(Cl)ccc(C(=O)NC4CC4)c3Cl)n2)cc2c1CCN(C)C2` [Example 47A, (R)-3-(1-(3-amino-6-(2,5-dimethyl-1,2,3,4-tetrahydroisoquinolin-7-yl)pyrazin-2-yloxy)ethyl)-2,4-dichloro-N-cyclopropylbenzamide], the pIC50 is 7.33.
As for `Cc1cc(-c2cnc(N)c(O[C@@H](C)c3c(Cl)ccc(C(=O)NC4CC4)c3Cl)n2)cc2c1CCN(C)C2` [Example 47B, (S)-3-(1-(3-amino-6-(2,5-dimethyl-1,2,3,4-tetrahydroisoquinolin-7-yl)pyrazin-2-yloxy)ethyl)-2,4-dichloro-N-cyclopropylbenzamide], the pIC50 is 5.57.
The value for `Cc1cc(-c2cnc(N)c(OCc3ccncc3OC3CC3)n2)cc2c1CCN(C)C2` [Example 149, 3-((3-cyclopropoxypyridin-4-yl)methoxy)-5-(2,5-dimethyl-1,2,3,4-tetrahydroisoquinolin-7-yl)pyrazin-2-amine] was 7.80; that for `Cc1cc(-c2cnc(N)c(OCc3ccnc(N)c3Cl)n2)cc2c1CCN(C)C2` [Example 152, 3-((2-amino-3-chloropyridin-4-yl)methoxy)-5-(2,5-dimethyl-1,2,3,4-tetrahydroisoquinolin-7-yl)pyrazin-2-amine] was 7.68; that for `COc1cc(-c2cnc(N)c(OCc3ccnc(N)c3)n2)cc2c1CCN(C)C2` [Example 179, 3-((2-aminopyridin-4-yl)methoxy)-5-(5-methoxy-2-methyl-1,2,3,4-tetrahydroisoquinolin-7-yl)pyrazin-2-amine] was 8.14.
The value for `COc1cnccc1COc1nc(-c2cc3c(c(OC)c2)CCN(C)C3)cnc1N` [Example 180, 5-(5-methoxy-2-methyl-1,2,3,4-tetrahydroisoquinolin-7-yl)-3-((3-methoxypyridin-4-yl)methoxy)pyrazin-2-amine] was 7.68; that for `COc1cnc2[nH]ccc2c1COc1nc(-c2cc(C)c3c(c2)CN(C)CC3)cnc1N` [Example 188, 5-(2,5-dimethyl-1,2,3,4-tetrahydroisoquinolin-7-yl)-3-((5-methoxy-1H-pyrrolo[2,3-b]pyridin-4-yl)methoxy)pyrazin-2-amine] was 8.09.
The value for `CNc1cc(-c2cnc(N)c(OCc3ccncc3OC)n2)cc2c1CCN(C)C2` [Example 205, 7-(5-amino-6-((3-methoxypyridin-4-yl)methoxy)pyrazin-2-yl)-N,2-dimethyl-1,2,3,4-tetrahydroisoquinolin-5-amine] was 7.92; that for `Cc1cc(-c2cnc(N)c(OCc3cc(N)nc(N)c3)n2)cc2c1CCN(C)C2` [Example 222, 4-((3-amino-6-(2,5-dimethyl-1,2,3,4-tetrahydroisoquinolin-7-yl)pyrazin-2-yloxy)methyl)pyridine-2,6-diamine] was 8.40; that for `Cc1cc(-c2cnc(N)c(Oc3cnn(C(C)C)c3)n2)cc2c1CN(C)CC2` [Example 242, 5-(2,8-dimethyl-1,2,3,4-tetrahydroisoquinolin-6-yl)-3-(1-isopropyl-1H-pyrazol-4-yloxy)pyrazin-2-amine] was 7.27.
In the case of `Cc1cc(-c2cnc(N)c(OCc3ccnc(N)c3OC3CCOCC3)n2)cc2c1CCN(C)C2` [Example 249, 3-((2-amino-3-((tetrahydro-2H-pyran-4-yl)oxy)pyridin-4-yl)methoxy)-5-(2,5-dimethyl-1,2,3,4-tetrahydroisoquinolin-7-yl)pyrazin-2-amine], the pIC50 is 8.10.
The value for `[2H]C([2H])(Oc1nc(-c2cc(C)c3c(c2)CN(C)CC3)cnc1N)c1ccnc(N)c1` [Example 266, 3-((2-aminopyridin-4-yl)methoxy-d2)-5-(2,5-dimethyl-1,2,3,4-tetrahydroisoquinolin-7-yl)pyrazin-2-amine] was 8.29.
The value for `CN1CCc2c(cc(-c3cnc(N)c(OCc4ccnc(N)c4)n3)cc2C(F)(F)F)C1` [Example 271, 3-((2-aminopyridin-4-yl)methoxy)-5-(2-methyl-5-(trifluoromethyl)-1,2,3,4-tetrahydroisoquinolin-7-yl)pyrazin-2-amine] was 7.96; that for `Cc1cc(-c2cnc(N)c(Oc3cnn(C(C)C)c3)n2)cc2c1CCN(C)C2` [Example 272, 5-(2,5-dimethyl-1,2,3,4-tetrahydroisoquinolin-7-yl)-3-(1-isopropyl-1H-pyrazol-4-yloxy)pyrazin-2-amine] was 8.08.
Turning to `CCn1cc(Oc2nc(-c3cc4c(c(OC)c3)CCN(C)C4)cnc2N)cn1` [Example 274, 3-(1-ethyl-1H-pyrazol-4-yloxy)-5-(5-methoxy-2-methyl-1,2,3,4-tetrahydroisoquinolin-7-yl)pyrazin-2-amine], the pIC50 was 7.62.
As to `CCn1cc(Oc2nc(-c3cc4c(c(NC)c3)CCN(C)C4)cnc2N)cn1` [Example 275, 7-(5-amino-6-(1-ethyl-1H-pyrazol-4-yloxy)pyrazin-2-yl)-N,2-dimethyl-1,2,3,4-tetrahydroisoquinolin-5-amine], the pIC50 is 7.85.
The value for `COCCn1cc(Oc2nc(-c3cc(C)c4c(c3)CN(C)CC4)cnc2N)cn1` [Example 276, 5-(2,5-dimethyl-1,2,3,4-tetrahydroisoquinolin-7-yl)-3-((1-(2-methoxyethyl)-1H-pyrazol-4-yl)oxy)pyrazin-2-amine] was 7.62.
The value for `Cc1cc(-c2cnc(N)c(Oc3cnn(CCC#N)c3)n2)cc2c1CCN(C)C2` [Example 277, 3-(4-((3-amino-6-(2,5-dimethyl-1,2,3,4-tetrahydroisoquinolin-7-yl)pyrazin-2-yl)oxy)-1H-pyrazol-1-yl)propanenitrile] was 8.19.
As to `CCOCCn1cc(Oc2nc(-c3cc(C)c4c(c3)CN(C)CC4)cnc2N)cn1` [Example 278, 5-(2,5-dimethyl-1,2,3,4-tetrahydroisoquinolin-7-yl)-3-((1-(2-ethoxyethyl)-1H-pyrazol-4-yl)oxy)pyrazin-2-amine], the pIC50 was 7.82.
The value for `CNCCN(C)C(=O)c1cnn(-c2nc(-c3cc(C)c4c(c3)CN(C)CC4)cnc2N)c1` [Example 279, 1-(3-amino-6-(2,5-dimethyl-1,2,3,4-tetrahydroisoquinolin-7-yl)pyrazin-2-yl)-N-methyl-N-(2-(methylamino)ethyl)-1H-pyrazole-4-carboxamide] was 7.72.
The value for `Cc1cc(-c2cnc(N)c(-n3cc(C(=O)N4CCC(F)(F)C4)cn3)n2)cc2c1CCN(C)C2` [Example 281, (1-(3-amino-6-(2,5-dimethyl-1,2,3,4-tetrahydroisoquinolin-7-yl)pyrazin-2-yl)-1H pyrazol-4-yl)(3,3-difluoropyrrolidin-1-yl)methanone] was 7.25; that for `Cc1cc(-c2cnc(N)c(OCc3ccnc(N)c3O[C@H]3CCOC3)n2)cc2c1CCN(C)C2` [Example 282, (S)-3-((2-amino-3-((tetrahydrofuran-3-yl)oxy)pyridin-4-yl)methoxy)-5-(2,5-dimethyl-1,2,3,4-tetrahydroisoquinolin-7-yl)pyrazin-2-amine] was 8.18; that for `COCCN(C)C(=O)c1cnn(-c2nc(-c3cc(C)c4c(c3)CN(C)CC4)cnc2N)c1` [Example 283, 1-(3-amino-6-(2,5-dimethyl-1,2,3,4-tetrahydroisoquinolin-7-yl)pyrazin-2-yl)-N-(2-methoxyethyl)-N-methyl-1H-pyrazole-4-carboxamide] was 8.20.
The value for `Cc1cc(-c2cnc(N)c(-n3cc(C(=O)N4CCN(C)CC4)cn3)n2)cc2c1CCN(C)C2` [Example 284, (1-(3-amino-6-(2,5-dimethyl-1,2,3,4-tetrahydroisoquinolin-7-yl)pyrazin-2-yl)-1H-pyrazol-4-yl)(4-methylpiperazin-1-yl)methanone] was 7.42; that for `Cc1cc(-c2cnc(N)c(-n3cc(C(=O)NCCN4CCCC4)cn3)n2)cc2c1CCN(C)C2` [Example 285, 1-(3-amino-6-(2,5-dimethyl-1,2,3,4-tetrahydroisoquinolin-7-yl)pyrazin-2-yl)-N-(2-(pyrrolidin-1-yl)ethyl)-1H-pyrazole-4-carboxamide] was 7.85.
On to `Cc1cc(-c2cnc(N)c(-n3cc(C(=O)N(C)c4ccccc4Cl)cn3)n2)cc2c1CCN(C)C2` [Example 286, 1-(3-amino-6-(2,5-dimethyl-1,2,3,4-tetrahydroisoquinolin-7-yl)pyrazin-2-yl)-N-(2-chlorophenyl)-N-methyl-1H-pyrazole-4-carboxamide], for which the negative-log IC50 (pIC50) is 8.44.
